Measured values taken from paper PMC7173930, “EAT-18 is an essential auxiliary protein interacting with the non-alpha nAChR subunit EAT-2 to form a functional receptor” (PLoS Pathogens, 2020).
Where “and” joins values, the source holds several entries; their conditions need not be identical. Identical values can stand only once. Like-named read-outs stand apart in the source and are kept apart here.

Columns and labels:
[1] = tested on: nAChRs expressed in the pharynx of A. suum; experiment: tissue or blood; assay type: cell-based; conditions: for Emax: read-out: % change in membrane conductance (δG) normalized to the ACh δG; for mode of antagonism of the pharyngeal ACh response / maximal response (δG) of ACh in the presence of antagonist: antagonist 10 μM; for mode of antagonism of the pharyngeal ACh response: ACh pEC50 unchanged, maximal response inhibited
Procedure: A. suum pharyngeal dissections and electrophysiology recordings were adapted from Martin [49]. Briefly, pharynx was dissected out from the head region of the worm and mounted on Sylgard (Sigma-Aldrich Inc., USA)—lined in a double jacketed bath chamber maintained at 28°C. The muscle layer surrounding the anterior 3rd of the pharynx was preserved for anchoring. The intestine attached to the posterior end of the pharynx was used for stretching and pinning down. The preparation was continuously perfused with calcium-free Ascaris Perienteric Fluid-Ringer (calcium-free APF-Ringer) composition (mM): NaCl 23, Na-acetate 110, KCl 24, MgCl2 11, glucose 11, and HEPES 5; NaOH or acetic acid was added to adjust the pH to 7.6. […] The rate of localized perfusion was 3.5–4 ml min^−1 through a 20-gauge needle, which was placed directly above the recording region of the pharynx. […] We used 3 M potassium acetate in our micropipettes to get the final resistances of 4–7 MΩ for the voltage sensing and 0.5–1 MΩ for the current injecting electrode for current-clamp recordings. The current-injecting electrode injected hyperpolarizing step currents of −1000 nA for 500 ms at 0.3 Hz.
We constructed the sigmoidal concentration-response plots by fitting the data by nonlinear regression to determine the pEC50 and the maximal response (Rmax). Extra sum of squares F-test was used to test statistical differences between pEC50, slope, and maximal response. The significance levels were set to P<0.05.
In applications containing arecoline and pilocarpine, we used mecamylamine, a nAChR antagonist (30µM) to inhibit nAChRs and to allow only mAChR activation.

[2] = biological target: Asu-EAT-2 nAChR (Ascaris suum, UniProt F1L9Y6); experiment: cell-based; assay type: cell-based, A. suum
Sequence of Asu-EAT-2 nAChR (F1L9Y6 entry or part of it): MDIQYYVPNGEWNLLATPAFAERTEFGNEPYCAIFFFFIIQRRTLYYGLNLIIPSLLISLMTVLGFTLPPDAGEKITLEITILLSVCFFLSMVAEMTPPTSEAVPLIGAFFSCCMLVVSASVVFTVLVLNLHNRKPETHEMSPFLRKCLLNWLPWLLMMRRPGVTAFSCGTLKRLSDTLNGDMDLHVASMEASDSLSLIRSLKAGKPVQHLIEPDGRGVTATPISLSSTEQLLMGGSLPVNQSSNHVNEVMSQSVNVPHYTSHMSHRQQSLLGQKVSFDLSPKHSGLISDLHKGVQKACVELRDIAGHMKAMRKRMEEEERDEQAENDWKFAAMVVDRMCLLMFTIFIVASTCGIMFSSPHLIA
Sequence of Asu-EAT-2 nAChR (F1L1D9 entry or part of it, further chain): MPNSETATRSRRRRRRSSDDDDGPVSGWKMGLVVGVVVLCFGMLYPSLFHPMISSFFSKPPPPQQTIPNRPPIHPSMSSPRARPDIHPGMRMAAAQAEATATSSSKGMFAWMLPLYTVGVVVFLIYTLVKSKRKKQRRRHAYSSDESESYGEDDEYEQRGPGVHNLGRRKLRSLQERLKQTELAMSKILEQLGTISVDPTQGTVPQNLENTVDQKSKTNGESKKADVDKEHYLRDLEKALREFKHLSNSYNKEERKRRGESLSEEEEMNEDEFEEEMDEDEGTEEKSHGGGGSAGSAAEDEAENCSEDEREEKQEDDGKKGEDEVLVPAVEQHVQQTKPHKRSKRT

[3] = biological target: T1, Cel-EAT-2 and Cel-EAT-18c nAChR (Caenorhabditis elegans, UniProt Q9U298); experiment: Two-electrode voltage-clamp of Cel-EAT-2 + Cel-EAT-18c nAChR expressed in Xenopus oocytes; assay type: cell-based; conditions: for Emax at 100 µM: read-out: current response normalized to the control 100 μM ACh current (Imax); for Hill slope (nH): agonist concentration-response
T1 sequence (Q9U298 22-474): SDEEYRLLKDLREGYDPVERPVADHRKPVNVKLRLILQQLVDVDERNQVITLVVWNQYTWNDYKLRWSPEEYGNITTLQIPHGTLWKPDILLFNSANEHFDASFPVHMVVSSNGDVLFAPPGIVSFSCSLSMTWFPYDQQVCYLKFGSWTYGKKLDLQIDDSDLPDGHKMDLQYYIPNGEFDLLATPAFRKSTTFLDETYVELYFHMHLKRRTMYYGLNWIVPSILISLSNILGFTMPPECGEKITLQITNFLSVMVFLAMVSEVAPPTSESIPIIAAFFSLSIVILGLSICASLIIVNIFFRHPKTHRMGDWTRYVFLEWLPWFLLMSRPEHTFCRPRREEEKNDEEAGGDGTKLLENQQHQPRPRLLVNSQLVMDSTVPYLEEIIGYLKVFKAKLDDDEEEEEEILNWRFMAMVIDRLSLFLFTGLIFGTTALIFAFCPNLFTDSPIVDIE

[4] = read-out: current response normalized to the control 100 μM ACh current
[5] = read-out: current response normalized to the control 100 μM ACh current, mean±SEM, n≥5

Compound: O=c1cccc2n1C[C@@H]1CNC[C@H]2C1 [cytisine]
- Emax ([1]; Ascaris suum): 71.2 ± 5%
- Emax [2, 4]: 81 ± 5.2%
- Emax at 100 µM [3]: 0%

Compound: C[N+]1(C)CCN(c2ccccc2)CC1 [DMPP]
- Emax ([1]; Ascaris suum): 12 ± 2.9%
- Emax [2, 5]: 6.6 ± 1.9%
- current response normalized to the control 100 μM ACh current (Imax) ([3]; agonist 100 μM, mean±SEM, n≥6): failed to respond
- Emax at 100 µM ([3]; agonist 100 μM, mean±SEM, n≥6): 0%

Compound: CC(=O)OCC[N+](C)(C)C [ACh, acetylcholine]
- Emax ([1]; Ascaris suum): 100%
- EC50 ([1]; Ascaris suum, concentration-conductance curve, 1-1000 μM applied for 10 s, mean±SEM, read-out: pEC50 (converted)): 10 µM
- maximal response ([1]; agonist concentration-response curve): 105.3 ± 2.5 μS
- Hill slope (nH) ([1]; concentration-conductance curve, mean±SEM): 1.8±0.3
- times more potent on Asu-EAT-2 nAChR compared to Cel-EAT-2 [2]: ≈ 9 times
- Hill slope (nH) ([2]; ACh concentration-response, mean±SEM, n=6): 3.5 ± 1.1
- Emax at 100 µM [2, 5]: 100%
- Hill slope (nH) ([3]; mean±SEM): 1.9±0.3 and 1.9 ± 0.2

Compound: CN1CCCN=C1/C=C/c1cccs1 [pyrantel]
- Emax ([1]; Ascaris suum): 0%
- current response normalized to the control 100 μM ACh current [2]: failed to activate the receptor
- Emax [2, 4]: 0%
- Emax at 100 µM ([3]; agonist 100 μM, mean±SEM, n≥6): 0%

Compound: c1cncc([C@@H]2CCCN2)c1 [nornicotine]
- Emax at 100 µM ([3]; agonist 100 μM, mean±SEM, n≥6): 0%

Compound: Cc1ccc(C[N+](C)(C)C)o1 [MFI, 5-methylfurmethiodide]
- normalized response (δG) to muscarinic agonists, control ACh = 100% ([1]; 100 μM, 10 s application, mean±SE, n=4): 4.0±0.6%

Compound: C[N+](C)(C)CCO [choline]
- Emax ([1]; Ascaris suum): 0%
- Emax [2, 4]: 0%

Compound: CN1[C@@H](CC(=O)c2ccccc2)CCC[C@H]1C[C@H](O)c1ccccc1 [lobeline]
- Emax at 100 µM ([3]; agonist 100 μM, mean±SEM, n≥6): 0%

Compound: C[N+](C)(C)CCCCCC[N+](C)(C)C [hexamethonium]
- % inhibition of 100 μM ACh membrane conductance (δG) [1]: 26.8±1.9%

Compound: COc1cc2c3cc1Oc1cc(ccc1O)C[C@@H]1c4c(cc(OC)c(O)c4Oc4ccc(cc4)C[C@@H]3N(C)CC2)CC[N+]1(C)C [d-TC, d-tubocurarine]
- % inhibition of 100 μM ACh membrane conductance (δG) [1]: 94.6±0.2%
- mode of antagonism of the pharyngeal ACh response [1]: non-competitive antagonists
- maximal response (δG) of ACh in the presence of antagonist ([1]; mean±SE): 23.0±3.0 μS
- inhibition at 30 µM ([3]; read-out: reduction (inhibition) in the mean ACh response, 30 μM d-tubocurarine): ~98%

Compound: α-bungarotoxin [α-BTX]
- Imax of ACh concentration-response in the presence of antagonist [3]: 86.0±2.4%
- effect on sensitivity and efficacy of the receptor for ACh [3]: not altered

Compound: CN1C(=O)[C@]23C[C@H]4C(C)(C)[C@]5(CNc6c5ccc5c6OC=CC(C)(C)O5)C[C@@]41CN2CC[C@@]3(C)O [derquantel]
- % inhibition of 100 μM ACh membrane conductance (δG) [1]: 30.6±7.0%
- mean % inhibition of ACh (100 μM) mediated currents [2]: 72.0±3.4%
- Imax of ACh concentration-response in the presence of antagonist ([3]; antagonist 10 μM): 68.4±2.1%

Compound: CNC1(C)C2CCC(C2)C1(C)C (centres unmarked) [mecamylamine]
- % inhibition of 100 μM ACh membrane conductance (δG) [1]: 92% and 92.2±1.9%

Compound: CN1CCCN=C1/C=C/c1cccc(O)c1 [oxantel]
- Emax ([1]; Ascaris suum): 0%
- Emax [2, 5]: 3 ± 1.3%
- current response normalized to the control 100 μM ACh current (Imax) ([3]; agonist 100 μM, mean±SEM, n≥6): 11 ± 1.3%
- Emax at 100 µM ([3]; agonist 100 μM, mean±SEM, n≥6): 11 ± 1.3%

Compound: α-cotinine
- current response normalized to the control 100 μM ACh current (Imax) ([3]; agonist 100 μM, mean±SEM, n≥6): 0.0±0.0%

Compound: CN1C(=O)[C@]23C[C@H]4C(C)(C)[C@@]5(C[C@@]41CN2CC[C@@]3(C)O)C(=O)Nc1c5ccc2c1OC=CC(C)(C)O2 [paraherquamide]
- % inhibition of 100 μM ACh membrane conductance (δG) [1]: 37.2±8.7%
- mode of antagonism of the pharyngeal ACh response [1]: non-competitive antagonists
- maximal response (δG) of ACh in the presence of antagonist ([1]; mean±SE): 87.7±5.7 μS
- Imax of ACh concentration-response in the presence of antagonist ([3]; antagonist 30 μM): 40.2±2.7%

Compound: CCN1C[C@]2(COC(=O)c3ccccc3N3C(=O)C[C@H](C)C3=O)CC[C@H](OC)[C@@]34[C@@H]5C[C@H]6[C@H](OC)[C@@H]5[C@](O)(C[C@@H]6OC)[C@@](O)([C@@H](OC)[C@H]23)[C@@H]14 [methyllycaconitine]
- % inhibition of 100 μM ACh membrane conductance (δG) [1]: 62.6±3.7%
- mode of antagonism of the pharyngeal ACh response [1]: non-competitive antagonists
- maximal response (δG) of ACh in the presence of antagonist ([1]; mean±SE): 57.0±4.6 μS

Compound: CC(=O)OC(C)C[N+](C)(C)C (centres unmarked) [methacholine]
- current response normalized to the control 100 μM ACh current (Imax) ([3]; agonist 100 μM, mean±SEM, n≥6): 73 ± 5.3%
- Hill slope (nH) ([3]; mean±SEM): 3.5±1.3
- Emax at 100 µM ([3]; agonist 100 μM, mean±SEM, n≥6): 73 ± 5.3%
- EC50 ([3]; read-out: pEC50 (converted)): 79.4 µM

Compound: C#Cc1cncc([C@@H]2CCCN2C)c1 [SIB 1508Y]
- Emax at 100 µM ([3]; agonist 100 μM, mean±SEM, n≥6): 0%

Compound: c1cncc([C@@H]2CCCCN2)c1 [anabasine]
- Emax at 100 µM ([3]; agonist 100 μM, mean±SEM, n≥6): 0%

Compound: C[N+](C)(CCOc1ccccc1)Cc1cccs1 [thenium]
- Emax ([1]; Ascaris suum): 6.1 ± 1.5%
- Emax [2, 5]: 0%

Compound: C/C(=N/c1ccc(/N=C/c2ccc(/C=N/c3ccc(/N=C(/C)N(C)C)cc3)cc2)cc1)N(C)C [tribendimidine]
- % change in membrane conductance (δG) normalized to the ACh δG ([1]; normalized to 100 μM ACh (10 s), mean±SEM, n≥4): 0.0±0.0%
